Measured values from patent US20090221829A1 (priority 2005, published 2009).
Values after ≈ are worked out from the molar mass of the structure shown. Counter-ions that a name gives are not always drawn.

Key:
various kinds of Candida = experiment: MIC (Minimal Inhibitory Concentration) data; format: cell-based; conditions: unit assumed
[1] = tested on: Candida albicans(KCTC 1940), Aspergillus niger (ATCC 9642) and Saccharomyces cerevisiae; experiment: Relative antifungal activity by agar dilution method (vs Miconazole); format: cell-based;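 further: scores 5 to 7 mean a lower fungicidal concentration than Miconazole so higher is more potent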
Description: Novel compounds represented by the above chemical formula (I), and the relative activities in accordance with the agar dilution method in Sabouraud dextrose agar media, Czapek agar media and Yeast Extract-Peptone-Dextrose agar media for Candida albicans(KCTC 1940), Aspergillus niger (ATCC 9642) and Saccharomyces cerevisiae are described respectively in following Table 1.

[2] = agar dilution method, fungicidal concentration relative to control drug Miconazole (=4)

melting point [°C]	Structure (SMILES)	MIC (various kinds of Candida; C. albicans ATCC 11651) [µg/mL]	MIC (various kinds of Candida; C. albicans ATCC 28838) [µg/mL]	MIC (various kinds of Candida; C. albicans IFO 1385) [µg/mL]	MIC (various kinds of Candida; C. albicans OY-003) [µg/mL]	MIC (various kinds of Candida; C. albicans OY-019) [µg/mL]	MIC (various kinds of Candida; C. albicans U.K) [µg/mL]	MIC (various kinds of Candida; C. albicnas ATCC 10231) [µg/mL]	MIC (various kinds of Candida; C. glabrata) [µg/mL]	MIC (various kinds of Candida; C. glulliermondi) [µg/mL]	MIC (various kinds of Candida; C. krusei (KCTC7273)) [µg/mL]	MIC (various kinds of Candida; C. parapsilosis) [µg/mL]	Relative Activity ([1]; antifungal activity relative to Miconazole, agar dilution)	Relative Activity [1, 2]
–	COc1cc2cc[n+](Cc3cccc(OC)c3OCc3ccc(C(F)(F)F)cc3)c(CCc3ccc(C(C)(C)C)cc3)c2cc1OC [Compound No. 149, 1-(2-(4-t-butylphenyl))ethyl-2-(2-(4-trifluoromethylbenzyloxy)-3-methoxyphenyl)methyl-6,7-dimethoxyisoquinolinium chloride]	0.78	1.56	3.12	0.78	1.56	0.78	0.78	6.25	1.56	1.56	6.25	1	–
–	COc1cc2c(cc1OC)C(CCc1ccc(C(C)(C)C)cc1)=[N+](Cc1cccc(OC)c1OCc1c(F)c(F)c(C(F)(F)F)c(F)c1F)CC2 [Compound No. 135, 1-(2-(4-t-butylphenyl))ethyl-2-(2-(2,3,5,6-tetrafluoro-4-trifluoromethylbenzyloxy)-3-methoxyphenyl)methyl-3,4-dihydro-6,7-dimethoxy isoquinolinium chloride]	6.25	3.12	6.25	3.12	6.25	6.25	–	12.5	3.12	1.56	12.5	–	2
–	COc1cc2c(cc1OC)C(CCc1ccc(C(C)(C)C)cc1)=[N+](Cc1cccc(OC)c1OCc1ccc(C(F)(F)F)cc1)CC2 [Compound No. 132, 1-(2-(4-t-butylphenyl))ethyl-2-(2-(4-trifluoromethylbenzyloxy)-3-methoxyphenyl)methyl-3,4-dihydro-6,7-dimethoxy isoquinolinium chloride]	3.12	1.56	6.25	3.12	3.12	1.56	–	12.5	3.12	1.56	6.5	–	1
101	CCCCc1ccc(C2=[N+](Cc3ccccc3F)CCc3cc4c(cc32)OCO4)cc1.[Cl-]	–	–	–	–	–	–	–	–	–	–	–	–	–
103	COc1cc2c(cc1OC)C(CCc1ccc(C(C)(C)C)cc1)=[N+](Cc1ccccc1F)CC2 (as salt: chloride) [Compound No. 124, 1-(2-(4-t-butylphenyl))ethyl-2-(2-fluorophenyl)methyl-3,4-dihydro-6,7-dimethoxyisoquinolinium chloride]	–	–	–	–	–	–	–	–	–	–	–	–	–
63	COc1cc2c(cc1OC)C(CCc1ccc(C(C)(C)C)cc1)=[N+](Cc1cccc(OC)c1OCc1c(F)cccc1Cl)CC2 (as salt: chloride) [Compound No. 133, 1-(2-(4-t-butylphenyl))ethyl-2-(2-(2-chloro-6-fluorobenzyloxy)-3-methoxyphenyl)methyl-3,4-dihydro-6,7-dimethoxyisoquinolinium chloride]	–	–	–	–	–	–	–	–	–	–	–	–	–
–	C[C@@H]1[C@H](O)[C@@H](C)/C=C/C=C/C=C/C=C/C=C/C=C/C=C/[C@H](O[C@@H]2O[C@H](C)[C@@H](O)[C@H](N)[C@@H]2O)C[C@@H]2O[C@](O)(C[C@@H](O)C[C@@H](O)[C@H](O)CC[C@@H](O)C[C@@H](O)CC(=O)O[C@H]1C)C[C@H](O)[C@H]2C(=O)O [Amphotericin B, reference compound]	1.56 (≈ 1.69 µM)	3.12 (≈ 3.38 µM)	1.56 (≈ 1.69 µM)	0.78 (≈ 0.844 µM)	0.4 (≈ 0.433 µM)	3.12 (≈ 3.38 µM)	1.56 (≈ 1.69 µM)	1.56 (≈ 1.69 µM)	1.56 (≈ 1.69 µM)	0.78 (≈ 0.844 µM)	3.12 (≈ 3.38 µM)	–	–

Structure (SMILES)	melting point [°C]	MIC (various kinds of Candida; C. albicans ATCC 11651) [µg/mL]	MIC (various kinds of Candida; C. albicans ATCC 28838) [µg/mL]	MIC (various kinds of Candida; C. albicans IFO 1385) [µg/mL]	MIC (various kinds of Candida; C. albicans OY-003) [µg/mL]	MIC (various kinds of Candida; C. albicans OY-019) [µg/mL]	MIC (various kinds of Candida; C. albicans U.K) [µg/mL]	MIC (various kinds of Candida; C. albicnas ATCC 10231) [µg/mL]	MIC (various kinds of Candida; C. glabrata) [µg/mL]	MIC (various kinds of Candida; C. glulliermondi) [µg/mL]	MIC (various kinds of Candida; C. krusei (KCTC7273)) [µg/mL]	MIC (various kinds of Candida; C. parapsilosis) [µg/mL]	Relative Activity ([1]; antifungal activity relative to Miconazole, agar dilution)	Relative Activity [1, 2]
COc1cc2cc[n+](Cc3cccc(OC)c3OCc3ccc(C(F)(F)F)cc3)c(CCc3ccc(C(C)(C)C)cc3)c2cc1OC (as salt: chloride) [Compound No. 149, 1-(2-(4-t-butylphenyl))ethyl-2-(2-(4-trifluoromethylbenzyloxy)-3-methoxyphenyl)methyl-6,7-dimethoxyisoquinolinium chloride]	110	–	–	–	–	–	–	–	–	–	–	–	–	–
